Literature values, collected in US20020182585A1, “Combination and method using EDTA, cystine, zinc and selenium for anti-thrombin effect and for anti-platelet aggregation and measurement of efficacy” (priority 2001, published 2002).

Details: EDTA binding of the metal cation; adapted from Schwartzenbach, 1957

[Ni+2] [Ni^++]
Stability Constant Log K: 18.0

[Cd+2] [Cd^++]
Stability Constant Log K: 16.5

[Pb+2] [Pb^++]
Stability Constant Log K: 18.5

[Hg+2] [Hg^++]
Stability Constant Log K: 21.8

[Co+2] [Co^++]
Stability Constant Log K: 16.3
